Laboratory results from patent publication US20210196738A1, “PHARMACEUTICAL COMPOSITION COMPRISING A COLLOIDAL DISPERSION AND A THERAPEUTIC AGENT AND METHODS AND USES THEREOF” (priority 2017, published 2021).
Entries after “also recorded” stand apart in the source; their conditions may differ. Like-named read-outs stand apart in the source and are kept apart here.

Assays:
[1] = tested on: E. coli K-12 MG1655 (DA4201); assay: AgSol-antibiotic synergy screening assay / MIC (Ag/Antibiotic screen); assay type: cell-based, Escherichia coli; settings: for MIC: Escherichia coli, MG1655, antibiotic alone; for Antibiotic MIC, NB + AgSol1000: antibiotic in combination with AgSol1000 at ¼ × MIC silver; for Fold change (antibiotic MIC, NB vs NB + AgSol1000): dash = MIC unchanged
Procedure: (§1) The MIC (Minimal Inhibitory Concentration) of a bacterium to a certain antimicrobial agent gives a quantitative estimate of the susceptibility. MIC is defined as the lowest concentration of antimicrobial agent required to inhibit growth of the organism. The principle is simple: Agar plates, tubes or microtitre trays with two-fold dilutions of antibiotics are inoculated with a standardized inoculum of the bacteria and incubated under standardized conditions following NCCLS guidelines. The next day, the MIC is recorded as the lowest concentration of antimicrobial agent with no visible growth. The MIC informs you about the degree of resistance and might give you important information about the resistance mechanism and the resistance genes involved. MIC-determination performed as agar dilution is regarded as the gold standard for susceptibility testing (Source: Global Salm-Surv—A global Salmonella surveillance and laboratory support project of the World Health Organization (4th Ed. April 2002, modified November 2010))
(§2) The Minimum Inhibitory Concentration (MIC) of nanosilver (silver) was determined by two-fold dilution series in NaCl free Nutrient Broth (Sigma-Aldrich) in 15 ml screw cap tubes. The tubes were incubated in the dark over night at 37° C. without shaking. The MIC was determined as the lowest concentration of nanosilver (silver) at which no visible growth was observed.
(§3) Antibiotic stock solutions were serially diluted in 2-fold steps in pre-warmed (37° C.) nutrient broth (NB) to prepare an antibiotic concentration gradient above and below the minimal inhibitory concentration (MIC) of antibiotic (Table 4). 50 μl of prepared dilutions were aliquoted into a 96-well round bottom plate (Nunc, Thermo Fisher) for the screening assay.
(§4) Silver formulation (AgSol1000 (particles with 19 Ag per silica particle), AgSol300 (particles with 6 Ag per silica particle, AgNO3), aluminum coated silica beads (159/500 (silica particles with aluminium silicate coating)) and uncoated silica beads (15/500) were diluted in pre-warmed (37° C.) NB. Bindzil®15/500 is an unmodified silica sol, whereas Bindzil®159/500 is a aluminosilicate modified silica sol. Bindzil® is sold by Akzo Nobel AB.
(§5) 40 μl of the prepared dilutions were added to the 96-well plate containing antibiotic gradient to reach the final silver concentration of ¼×MICAgSol (silver) (specific for the microorganism used) (Table 5).
(§6) Overnight (16-20 h) cultures of 3 biological replicates of the following microorganisms E. coli K-12 MG1655 (DA4201), E. coli K-12 MG1655 rpsL K42N (DA49828), Pseudomonas aeruginosa PAO1 (DA6215) or Staphylococcus aureus USA300 JE2 (DA28823) were grown in NB till saturation (37° C. incubator with 190 rpm shaking). Cultures were diluted in NB to 10^7 CFU/ml and 10 μl of the dilution were added to the 96-well plate containing antibiotic gradient and silver formulations or the bead controls to reach the final concentration of 10^5 CFU/well in 100 μl total volume per well. 3 technical replicates (3 wells) of specific antibiotic concentration in combination with silver and microorganism were used. A control plate containing bacterial cells mixed with only antibiotic gradient was always included too.
(§7) The prepared plate was incubated in 37° C. incubator without shaking in the dark for 16-20 h and the optical density (OD620) of each well was measured in plate reader Multiscan FC (Thermo Fisher).

[2] = tested on: Staphylococcus aureus USA300 JE2 (DA28823); assay: Time-kill assay; assay type: cell-based; settings: antibiotic 2×MIC, silver ¼×MIC; FIG. 7A-B
Procedure: Antibiotic stock solutions were diluted in pre-warmed (37° C.) nutrient broth (NB) to prepare 2×MIC concentration (Table 4) of antibiotic in the final volume of 2 ml in 15 ml tubes (Sarstedt).
Silver formulation (AgSol1000, AgNO3) was diluted in pre-warmed (37° C.) NB and added to the tube containing antibiotic to reach the final silver concentration of ¼×MICAgsol (silver) (Table 5) in the final volume of 2 ml.
Overnight (16-20 h) cultures of 2 biological replicates of the following microorganisms Pseudomonas aeruginosa PAO1 (DA6215) or Staphylococcus aureus USA300 JE2 (DA28823) were grown in NB till saturation (37° C. incubator with 190 rpm shaking). Cultures were diluted (1/100) in pre-warmed (37° C.) NB and incubated in 37° C. incubator with 190 rpm shaking until they reached exponential growth phase (OD600˜0.2). Final concentration of approximately 10^6 CFU/ml of exponentially dividing cells was used in the total volume of 2 ml mixture of antibiotic and silver formulation. Control tubes with only bacterial cells or bacterial cells mixed with only antibiotic or only silver formulation were also used.
All tubes were incubated in 37° C. water bath with 150 rpm shaking and 100 μl samples were taken out at pre-determined time points for viable counts (2 technical replicates). CFU counts were normalized to the 0 h sample and were plotted as a function of time (h).
A “Time Kill” test was performed with S. aureus USA3000 JE2 and Fusidic acid (FUS) and Mupirocin (MUP) and with P. aeruginosa (PAO1) with gentamicin (GEN). From a stock solution with bacteria with controlled growth at 37° C. during 16 h, […] were prepared: • Bacterial cells • Bacterial cells+AgSol • Bacterial cells+AgNO3; • Bacterial cells+AgSol+antibiotic • Bacterial cells+AgNO3+antibiotic
Samples were taken after 0, 4, 8, 24 and 48 hours at 37° C. (incubation with shaking). The samples were plated for viable counts, CFU counts normalized to 0 h and plotted as a function of time.

[3] = tested on: Staphylococcus aureus USA300 JE2 (DA28823); assay: AgSol-antibiotic synergy screening assay / MIC; assay type: cell-based; settings: for effect of antibiotic when adding AgSol: S. aureus (USA300 JE2), FIGS. 4 and 5; for MIC: Staphylococcus aureus, USA300, antibiotic alone, S. aureus (DA28823), values used for antibiotic gradient
Procedure: as §1, §2, §3, §4, §5, §6, §7

[4] = tested on: S. enterica Typhimurium LT2; assay: AgSol-antibiotic synergy screening assay; assay type: cell-based, Salmonella enterica; settings: Streptomycin or Rifampicin; FIGS. 2A-2F
Procedure: as §3, §4, §5, §7

[5] = tested on: Salmonella enterica Typhimurium LT2; assay: Highly sensitive competition experiments (resistant vs wild type); assay type: cell-based; settings: 50% sensitive / 50% Streptomycin-resistant bacteria; silver at 0.25×MIC; FIG. 1
Procedure: as §2

[6] = E. coli (DA4201), values used for antibiotic gradient, read-out: MIC
[7] = nutrient broth, read-out: Antibiotic MIC, NB

O=C(N[C@H](CO)[C@H](O)c1ccc([N+](=O)[O-])cc1)C(Cl)Cl [Chloramphenicol]
MIC [1, 6]: 3 µg/mL
MIC [1, 7]: 3 µg/mL
Antibiotic MIC, NB + AgSol1000 ([1]; nutrient broth): 1.5 µg/mL
Fold change (antibiotic MIC, NB vs NB + AgSol1000) [1]: 2x

CO[C@H]1/C=C/O[C@@]2(C)Oc3c(C)c(O)c4c(O)c(c(/C=N/N5CCN(C)CC5)c(O)c4c3C2=O)NC(=O)/C(C)=C\C=C\[C@H](C)[C@H](O)[C@@H](C)[C@@H](O)[C@@H](C)[C@H](OC(C)=O)[C@@H]1C [Rifampicin]
MIC [1, 6]: 3 µg/mL
MIC [1, 7]: 3 µg/mL
Antibiotic MIC, NB + AgSol1000 ([1]; nutrient broth): 3 µg/mL

NC[C@H]1O[C@H](O[C@H]2[C@H](O)[C@@H](O[C@H]3O[C@H](CO)[C@@H](O)[C@H](N)[C@H]3O)[C@H](N)C[C@@H]2N)[C@H](N)C[C@@H]1O [Tobramycin]
MIC [1, 6]: 0.75 µg/mL
MIC [1, 7]: 0.75 µg/mL
fold increase in effect with AgSol vs antibiotic alone ([1]; Table 6, E. coli): 16 fold
Antibiotic MIC, NB + AgSol1000 ([1]; nutrient broth): 0.047 µg/mL
Fold change (antibiotic MIC, NB vs NB + AgSol1000) [1]: 16x

C/C(=C\C(=O)OCCCCCCCCC(=O)O)C[C@@H]1OC[C@H](C[C@@H]2O[C@H]2[C@@H](C)[C@H](C)O)[C@@H](O)[C@H]1O [Mupirocin]
time-kill: action of antibiotic in combination with AgSol [2]: bacteriostatic
effect of antibiotic when adding AgSol [3]: synergistic anti-bacterial effect; also recorded: there was an effect
MIC [3]: 0.12 µg/mL

CN[C@@H]1[C@H](O)[C@H](NC)[C@H]2O[C@@]3(O)C(=O)C[C@@H](C)O[C@H]3O[C@@H]2[C@H]1O [Spectinomycin]
MIC [1, 6]: 12 µg/mL
MIC [1, 7]: 12 µg/mL
Antibiotic MIC, NB + AgSol1000 ([1]; nutrient broth): 6 µg/mL
Fold change (antibiotic MIC, NB vs NB + AgSol1000) [1]: 2x

O=C(O)c1cn(C2CC2)c2cc(N3CCNCC3)c(F)cc2c1=O [Ciprofloxacin]
MIC [1, 6]: 0.012 µg/mL
MIC [1, 7]: 0.012 µg/mL
Antibiotic MIC, NB + AgSol1000 ([1]; nutrient broth): 0.012 µg/mL

CO/N=C(\C(=O)N[C@@H]1C(=O)N2C(C(=O)O)=C(COC(C)=O)CS[C@H]12)c1csc(N)n1 [Cefotaxime]
MIC [1, 6]: 0.094 µg/mL
MIC [1, 7]: 0.094 µg/mL
Antibiotic MIC, NB + AgSol1000 ([1]; nutrient broth): 0.047 µg/mL
Fold change (antibiotic MIC, NB vs NB + AgSol1000) [1]: 2x

CN(C)[C@@H]1C(O)=C(C(N)=O)C(=O)[C@@]2(O)C(O)=C3C(=O)c4c(O)cccc4[C@@](C)(O)[C@H]3C[C@@H]12 [Tetracycline]
MIC [1, 6]: 1 µg/mL
MIC [1, 7]: 0.5 µg/mL
Antibiotic MIC, NB + AgSol1000 ([1]; nutrient broth): 0.5 µg/mL

CC[C@H]1OC(=O)[C@H](C)[C@@H](O[C@H]2C[C@@](C)(OC)[C@@H](O)[C@H](C)O2)[C@H](C)[C@@H](O[C@@H]2O[C@H](C)C[C@H](N(C)C)[C@H]2O)[C@](C)(O)C[C@@H](C)C(=O)[C@H](C)[C@@H](O)[C@]1(C)O [Erythromycin]
MIC [1, 6]: 48 µg/mL
MIC [1, 7]: 48 µg/mL
Antibiotic MIC, NB + AgSol1000 ([1]; nutrient broth): 48 µg/mL

CC1(C)S[C@@H]2[C@H](NC(=O)[C@H](N)c3ccccc3)C(=O)N2[C@H]1C(=O)O [Ampicillin]
MIC [1, 6]: 4 µg/mL
MIC [1, 7]: 4 µg/mL
Antibiotic MIC, NB + AgSol1000 ([1]; nutrient broth): 2 µg/mL
Fold change (antibiotic MIC, NB vs NB + AgSol1000) [1]: 2x

NC[C@H]1O[C@H](O[C@H]2[C@H](O)[C@@H](O[C@H]3O[C@H](CO)[C@@H](O)[C@H](N)[C@H]3O)[C@H](N)C[C@@H]2N)[C@H](O)[C@@H](O)[C@@H]1O [Kanamycin]
MIC [1, 6]: 0.5 µg/mL
MIC [1, 7]: 0.5 µg/mL
Antibiotic MIC, NB + AgSol1000 ([1]; nutrient broth): 0.12 µg/mL
Fold change (antibiotic MIC, NB vs NB + AgSol1000) [1]: 4x

CC(=O)O[C@H]1C[C@@]2(C)[C@@H](C[C@@H](O)[C@H]3[C@@]4(C)CC[C@@H](O)[C@@H](C)[C@@H]4CC[C@@]32C)/C1=C(\CCC=C(C)C)C(=O)O [Fusidic acid]
time-kill: action of antibiotic in combination with AgSol [2]: bacteriostatic
effect of antibiotic when adding AgSol [3]: synergistic anti-bacterial effect; also recorded: there was an effect
MIC [3]: 0.12 µg/mL

O=[N+]([O-])[O-].[Ag+] [AgNO3, silver nitrate]
effect of silver formulation in combination with antibiotics vs silica particles 159/500 and 15/500 [4]: improved effect
effect of silver source in combination with Streptomycin [5]: synergistic effect
